From patent publication US20240246960A1 (adMare Therapeutics Society, priority 2021, published 2024)

target: T1, DNA-PK phosphorylation at Serine 2056 (Homo sapiens, UniProt P78527); assay: Cellular Assay for Inhibition of DNA-PK Phosphorylation at Serine 2056 (FaDu cells, neocarzinostatin, sandwich ELISA); type: cell-based; conditions: Table 3
T1 construct: host or cells: FaDu
Method: FaDu cells were purchased from ATCC and maintained in MEM alpha medium (Life Technologies, cat. no. 12561) supplemented with 10% fetal bovine serum, and 1% GlutaMAX at 37° C. supplemented with 5% CO2. 50,000 cells were seeded to each well of a 96-well cell culture plate in 50 μL of culture medium and incubated for 16-24 hours. Three-fold serially diluted compounds were prepared in DMSO. Culture media was used to prepare compound treatments to 0.3% DMSO (dimethyl sulphoxide) content. Compound treatments were added to the cells for 1 hour prior incubation, followed by the addition of neocarzinostatin in fresh culture medium to 1 μg/mL final concentration for an additional 2 hours incubation to induce DNA DSBs (double-strand breaks). DMSO controls were incubated with fresh culture medium alone for the additional two hours incubation. The cells were then lysed and frozen at −20° C. Cell lysates were thawed on wet ice and protein concentrations quantified by BCA Protein Assay (Thermo # 23225). Lysis buffer was used to normalize lysates by protein content and all lysates were then investigated by sandwich ELISA by means of DNA-PK-specific antibodies (Abcam ab44815: total DNA-PK; ab124918: phosphoserine-2056 DNA-PK) in sandwich ELISA format on the MSD S600MM platform (MesoScale Discovery). % inhibition was calculated for all data points: =1−(DATA_PT−AVERAGE(DMSO controls))/(AVERAGE(NCS controls)−AVERAGE(DMSO controls)). Logarithm of the molar concentration of compound was plotted against percent inhibition to calculate IC50 values, with curve fit settings for data fit to log(inhibitor) vs. normalized response—Variable slope using curve fit software (GraphPad Prism).

IC50 [nM]	Compound
1000 to 10000	Cc1cnc(N[C@H]2CC[C@@H](Oc3nc(N4CCOCC4)cc4ncc(O)cc34)CC2)c(C)c1 [LFA1052, 5-[4-[(3,5-dimethyl-2-pyridyl)amino]cyclohexoxy]-7-morpholino-1,6-naphthyridin-3-ol]
100 to 1000	Cc1ccc(N[C@H]2CC[C@@H](Oc3nc(N4CCOCC4)cc4ncc(O)cc34)CC2)cn1 [LFA1053, 5-[4-[(6-methyl-3-pyridyl)amino]cyclohexoxy]-7-morpholino-1,6-naphthyridin-3-ol]
100 to 1000	Oc1cnc2cc(N3CCOCC3)nc(O[C@H]3CC[C@@H](Nc4ncc(F)cc4F)CC3)c2c1 [LFA1054, 5-[4-[(3,5-difluoro-2-pyridyl)amino]cyclohexoxy]-7-morpholino-1,6-naphthyridin-3-ol]
100 to 1000	Cc1ccncc1N[C@H]1CC[C@@H](Oc2nc(N3CCOCC3)cc3ncc(O)cc23)CC1 [LFA1055, 5-[4-[(4-methyl-3-pyridyl)amino]cyclohexoxy]-7-morpholino-1,6-naphthyridin-3-ol]
< 100	Oc1cnc2cc(N3CCOCC3)nc(O[C@H]3CC[C@@H](Nc4ccccn4)CC3)c2c1 [LFA1056, 7-morpholino-5-[4-(2-pyridylamino)cyclohexoxy]-1,6-naphthyridin-3-ol]
< 100	Cc1cc(C)nc(N[C@H]2CC[C@@H](Oc3nc(N4CCOCC4)cc4ncc(O)cc34)CC2)n1 [LFA1057, 5-[4-[(4,6-dimethylpyrimidin-2-yl)amino]cyclohexoxy]-7-morpholino-1,6-naphthyridin-3-ol]
100 to 1000	CN(c1ncccn1)[C@H]1CC[C@@H](Oc2nc(N3CCOCC3)cc3ncc(O)cc23)CC1 [LFA1058, 5-[4-[methyl(pyrimidin-2-yl)amino]cyclohexoxy]-7-morpholino-1,6-naphthyridin-3-ol]
100 to 1000	Cc1cc(C#N)nc(N[C@H]2CC[C@@H](Oc3nc(N4CCOCC4)cc4ncc(O)cc34)CC2)n1 [LFA1059, 2-[[4-[(3-hydroxy-7-morpholino-1,6-naphthyridin-5-yl)oxy]cyclohexyl]amino]-6-methyl-pyrimidine-4-carbonitrile]
< 100	CN(C)Cc1cnc(N[C@H]2CC[C@@H](Oc3nc(N4CCOCC4)cc4ncc(O)cc34)CC2)nc1 [LFA1060, 5-[4-[[5-[(dimethylamino)methyl]pyrimidin-2-yl]amino]cyclohexoxy]-7-morpholino-1,6-naphthyridin-3-ol]
< 100	CS(=O)(=O)Nc1cnc2cc(N3CCOCC3)nc(O[C@H]3CC[C@@H](n4cc(F)cn4)CC3)c2c1 [LFA1061, N-[5-[4-(4-fluoropyrazol-1-yl)cyclohexoxy]-7-morpholino-1,6-naphthyridin-3-yl]methanesulfonamide]
100 to 1000	Cn1cc([C@H]2CC[C@@H](Oc3nc(N4CCOCC4)cc4ncc(NS(C)(=O)=O)cc34)CC2)cn1 [LFA1062, N-[5-[4-(1-methylpyrazol-4-yl)cyclohexoxy]-7-morpholino-1,6-naphthyridin-3-yl]methanesulfonamide]
10000 to 30000	Cn1cc([C@H]2CC[C@H](Oc3nc(N4CCOCC4)cc4ncc(NS(C)(=O)=O)cc34)CC2)cn1 [LFA1063, N-[5-[4-(1-methylpyrazol-4-yl)cyclohexoxy]-7-morpholino-1,6-naphthyridin-3-yl]methanesulfonamide]
100 to 1000	CS(=O)(=O)Nc1cnc2cc(N3CCOCC3)nc(O[C@H]3CC[C@@H](c4cnccn4)CC3)c2c1 [LFA1064, N-[7-morpholino-5-(4-pyrazin-2-ylcyclohexoxy)-1,6-naphthyridin-3-yl]methanesulfonamide]
< 100	Oc1cnc2cc(N3CCOCC3)nc(O[C@H]3CC[C@@H](c4cnccn4)CC3)c2c1 [LFA1065, 7-morpholino-5-(4-pyrazin-2-ylcyclohexoxy)-1,6-naphthyridin-3-ol]

Compound	IC50 [nM]
N-[5-[4-[(4,6-dimethylpyrimidin-2-yl)amino]cyclohexoxy]-7-morpholino-1,6-naphthyridin-3-yl]methanesulfonamide;2,2,2-trifluoroacetic acid [LFA1046]	100 to 1000

target: T2, DNA-PK (Homo sapiens, UniProt P78527); assay: DNA-PK Assay for Biochemical Enzymatic Inhibition (ADP Glo Kinase assay); conditions: Table 1
T2 construct: purchased Invitrogen PR9107A
Method: A biochemical assay was performed to identify IC50 values against DNA-PK activity in a two-step reaction with a kinase reaction followed by ADP Glo™ Kinase assay Kit (Promega V9102).
Three-fold serial dilutions of compounds in DMSO were prepared in kinase assay buffer (50 mM HEPES pH 7.5, 20 mM MgCl2, 100 mM KCl, 50 μM DTT, 10 μg/ml calf thymus DNA, 0.01% Tween 20). Kinase assay buffer was used to prepare compound treatments to 0.02% DMSO (dimethyl sulphoxide) content. DMSO controls were prepared to produce a maximum and minimum luminescence signal for normalization. Substrate (Anaspec, AS-60210-5) and ATP (Promega V9102) and ATP mix was prepared by dilution in kinase assay buffer for 434.4 μM and 64.4 μM final assay concentrations, respectively. Compounds and control were added to 25 ng DNA-PK enzyme (Invitrogen, PR9107A) diluted in kinase buffer in assay plate (Corning 267459) and incubated for 15 minutes at room temperature prior to addition of substrate and ATP mix.
Throughout the assay, each time a reagent was added to the microplate, it was centrifuged for 1 minute at 1300 rcf. All reagents were added, and incubations carried out at room temperature. The reaction was then incubated for 60 minutes. ADP-ATP standards at 0, 4, 10, 40, 80, and 100% ADP (prepared as specified in the ADP Glo™ Kinase assay kit) were also added to the microplate at a volume equal to the total kinase reaction. The ADP Glo™ Kinase Assay kit was then used to quantify DNA-PK activity: following the 60-minute incubation, a 1:1 volume of ADP Glo reagent was added to all wells, then following a further 45-minute incubation, a 1:1 volume of Kinase Detection Reagent was added to all wells. After this two-step assay, plates were incubated in a Synergy-Neo2 plate reader for 30 minutes with gentle shaking, followed by endpoint luminescent read Luminescence data was normalized by subtracting the background signal and expressing all background-adjusted values as a percentage of the average maximum signal. The data was then expressed as percent inhibition by subtracting from 100% (i.e. maximum luminescent signal will be 0% inhibition) and the resulting data plotted against ten concentration points on a logarithmic scale, using GraphPad Prism. Non-linear regression analysis was performed on each concentration response curve and the log [inhibitor] vs response—variable slope (four parameters) equation was selected to generate IC50 values.

Compound	IC50 [nM]
Cn1cc([C@H]2CC[C@H](Oc3nc(N4CCOCC4)cc4ncc(Br)cc34)CC2)cn1 [Compound 3b, 4-(3-bromo-5-(((1r,4r)-4-(1-methyl-1H-pyrazol-4-yl)cyclohexyl)oxy)-1,6-naphthyridin-7-yl)morpholine]	10 to 150
Cn1cc([C@H]2CC[C@@H](Oc3nc(N4CCOCC4)cc4ncc(O)cc34)CC2)cn1 [Compound 4b, 5-(((1r,4r)-4-(1-methyl-1H-pyrazol-4-yl)cyclohexyl)oxy)-7-morpholino-1,6-naphthyridin-3-ol]	10 to 150
FC(F)(F)c1ccn([C@H]2CC[C@@H](Oc3nc(N4CCOCC4)cc4ncccc34)CC2)n1 [Compound 17c, 4-(5-(((1s,4s)-4-(3-(trifluoromethyl)-1H-pyrazol-1-yl)cyclohexyl)oxy)-1,6-naphthyridin-7-yl)morpholine]	10 to 150
COc1cnc(N[C@H]2CC[C@@H](Oc3nc(N4CCOCC4)cc4ncc(Br)cc34)CC2)nc1 [Compound 18c, N-((1s,4s)-4-((3-Bromo-7-morpholino-1,6-naphthyridin-5-yl)oxy)cyclohexyl)-5-methoxypyrimidin-2-amine]	10 to 150
CCOC(=O)N[C@H]1CC[C@@H](Oc2nc(N3CCOCC3)cc3ncccc23)CC1 [Compound 104, Ethyl ((1s,4s)-4-((7-morpholino-1,6-naphthyridin-5-yl)oxy)cyclohexyl)carbamate]	10 to 150
O=C(N[C@H]1CC[C@@H](Oc2nc(N3CCOCC3)cc3ncccc23)CC1)c1cncnc1C(F)(F)F [Compound 130, N-((1s,4s)-4-((7-morpholino-1,6-naphthyridin-5-yl)oxy)cyclohexyl)-4-(trifluoromethyl)pyrimidine-5-carboxamide]	10 to 150
O=S(=O)(N[C@H]1CC[C@@H](Oc2nc(N3CCOCC3)cc3ncccc23)CC1)c1ccccc1 [Compound 147, N-((1s,4s)-4-((7-Morpholino-1,6-naphthyridin-5-yl)oxy)cyclohexyl)benzenesulfonamide]	10 to 150
O=S(=O)(N[C@H]1CC[C@@H](Oc2nc(N3CCOCC3)cc3ncccc23)CC1)c1ccc(F)cc1 [Compound 148, 4-Fluoro-N-((1s,4s)-4-((7-morpholino-1,6-naphthyridin-5-yl)oxy)cyclohexyl)benzenesulfonamide]	10 to 150
COc1ccc(S(=O)(=O)N[C@H]2CC[C@@H](Oc3nc(N4CCOCC4)cc4ncccc34)CC2)cc1 [Compound 149, 4-Methoxy-N-((1s,4s)-4-((7-morpholino-1,6-naphthyridin-5-yl)oxy)cyclohexyl)benzenesulfonamide]	10 to 150
CC(=O)Nc1cnc2cc(N3CCOCC3)nc(O[C@H]3CC[C@@H](n4ccnc4)CC3)c2c1 [Compound 162, N-(5-(((1s,4s)-4-(1H-imidazol-1-yl)cyclohexyl)oxy)-7-morpholino-1,6-naphthyridin-3-yl)acetamide]	10 to 150

Other lines, results leading:

IC50 [nM]	Compound
10 to 150	O=C([C@H]1CC[C@@H](Oc2nc(N3CCOCC3)cc3ncccc23)CC1)N1CCOCC1 [Compound 154a, morpholino((1S,4S)-4-((7-morpholino-1,6-naphthyridin-5-yl)oxy)cyclohexyl)methanone]
10 to 150	CN1CCN(C(=O)[C@H]2CC[C@@H](Oc3nc(N4CCOCC4)cc4ncccc34)CC2)CC1 [Compound 154d, (4-methylpiperazin-1-yl)((1S,4S)-4-((7-morpholino-1,6-naphthyridin-5-yl)oxy)cyclohexyl)methanone]
